Each molecule was assayed on ACHN (assay: Growth inhibition of human ACHN cells at 10 uM after 48 hrs by sulforhodamine B assay relative to control). Conditions: read-out: GI.
Type: functional

SMILES	inhibition of growth at 10 µM [%]
COc1ccc2c(c1)O/C(=C\c1ccc(OCC(=O)Nc3ccccc3)c(OC)c1)C2=O	18.9 to 27.1

The molecules below were run on SF-295 (assay: Growth inhibition of human SF295 cells at 10 uM after 48 hrs by sulforhodamine B assay relative to control). Conditions: SF-295, 48 h, read-out: GI.
Type: functional

SMILES	inhibition of growth at 10 µM [%]
COc1ccc2c(c1)O/C(=C\c1ccc(OCC(=O)Nc3ccccc3)c(OC)c1)C2=O	18.9 to 27.1

Each molecule was assayed on HL-60(TB) (assay: Growth inhibition of human HL-60(TB) cells at 10 uM after 48 hrs by sulforhodamine B assay relative to control). Conditions: HL-60, 48 h, read-out: GI.
Type: functional

SMILES	inhibition of growth at 10 µM [%]
COc1ccc2c(c1)O/C(=C\c1ccc(OCC(=O)Nc3ccccc3)c(OC)c1)C2=O	18.9 to 27.1

Each molecule was assayed on IGROV-1 (assay: Growth inhibition of human IGROV1 cells at 10 uM after 48 hrs by sulforhodamine B assay relative to control). Conditions: IGROV-1, 48 h, read-out: GI.
Type: functional

SMILES	inhibition of growth at 10 µM [%]
COc1ccc2c(c1)O/C(=C\c1ccc(OCC(=O)Nc3ccccc3)c(OC)c1)C2=O	18.9 to 27.1

These molecules were tested on HOP-92 (assay: Growth inhibition of human HOP92 cells at 10 uM after 48 hrs by sulforhodamine B assay relative to control). Conditions: HOP-92, 48 h, read-out: GI.
Type: functional

SMILES	inhibition of growth at 10 µM [%]
COc1ccc2c(c1)O/C(=C\c1ccc(OCC(=O)Nc3ccccc3)c(OC)c1)C2=O	18.9 to 27.1

The molecules below were run on SK-OV-3 (assay: Growth inhibition of human SKOV3 cells at 10 uM after 48 hrs by sulforhodamine B assay relative to control). Conditions: SK-OV-3, 48 h, read-out: GI.
Type: functional

SMILES	inhibition of growth at 10 µM [%]
COc1ccc2c(c1)O/C(=C\c1ccc(OCC(=O)Nc3ccccc3)c(OC)c1)C2=O	18.9 to 27.1

What follows are molecules tested on M14 (assay: Growth inhibition of human M14 cells at 10 uM after 48 hrs by sulforhodamine B assay relative to control). Conditions: M14, 48 h, read-out: GI.
Type: functional

SMILES	inhibition of growth at 10 µM [%]
COc1ccc2c(c1)O/C(=C\c1ccc(OCC(=O)Nc3ccccc3)c(OC)c1)C2=O	18.9 to 27.1

These molecules were tested on CCRF-CEM (assay: Growth inhibition of human CCRF-CEM cells at 10 uM after 48 hrs by sulforhodamine B assay relative to control). Conditions: read-out: GI.
Type: functional

SMILES	inhibition of growth at 10 µM [%]
COc1ccc2c(c1)O/C(=C\c1ccc(OCC(=O)Nc3ccccc3)c(OC)c1)C2=O	18.9 to 27.1

The molecules below were run on MDA-MB-231 (assay: Growth inhibition of human MDA-MB-231 cells at 10 uM after 48 hrs by sulforhodamine B assay relative to control). Conditions: MDA-MB-231, 48 h, read-out: GI.
Type: functional

SMILES	inhibition of growth at 10 µM [%]
COc1ccc2c(c1)O/C(=C\c1ccc(OCC(=O)Nc3ccccc3)c(OC)c1)C2=O	18.9 to 27.1

These molecules were tested on OVCAR-3 (assay: Growth inhibition of human OVCAR3 cells at 10 uM after 48 hrs by sulforhodamine B assay relative to control). Conditions: OVCAR-3, 48 h, read-out: GI.
Type: functional

SMILES	inhibition of growth at 10 µM [%]
COc1ccc2c(c1)O/C(=C\c1ccc(OCC(=O)Nc3ccccc3)c(OC)c1)C2=O	18.9 to 27.1

Each molecule was assayed on 786-0 (assay: Growth inhibition of human 786-0 cells at 10 uM after 48 hrs by sulforhodamine B assay relative to control). Conditions: 786-0, 48 h, read-out: GI.
Type: functional

SMILES	inhibition of growth at 10 µM [%]
COc1ccc2c(c1)O/C(=C\c1ccc(OCC(=O)Nc3ccccc3)c(OC)c1)C2=O	18.9 to 27.1

The molecules below were run on SF-268 (assay: Growth inhibition of human SF268 cells at 10 uM after 48 hrs by sulforhodamine B assay relative to control). Conditions: SF-268, 48 h, read-out: GI.
Type: functional

SMILES	inhibition of growth at 10 µM [%]
COc1ccc2c(c1)O/C(=C\c1ccc(OCC(=O)Nc3ccccc3)c(OC)c1)C2=O	18.9 to 27.1

The molecules below were run on TK-10 (assay: Growth inhibition of human TK10 cells at 10 uM after 48 hrs by sulforhodamine B assay relative to control). Conditions: TK-10, 48 h, read-out: GI.
Type: functional

SMILES	inhibition of growth at 10 µM [%]
COc1ccc2c(c1)O/C(=C\c1ccc(OCC(=O)Nc3ccccc3)c(OC)c1)C2=O	18.9 to 27.1

Each molecule was assayed on Hs-578T (assay: Growth inhibition of human Hs 578T cells at 10 uM after 48 hrs by sulforhodamine B assay relative to control). Conditions: read-out: GI.
Type: functional

SMILES	inhibition of growth at 10 µM [%]
COc1ccc2c(c1)O/C(=C\c1ccc(OCC(=O)Nc3ccccc3)c(OC)c1)C2=O	18.9 to 27.1

The molecules below were run on MDA-MB-468 (assay: Growth inhibition of human MDA-MB-468 cells at 10 uM after 48 hrs by sulforhodamine B assay relative to control). Conditions: MDA-MB-468, 48 h, read-out: GI.
Type: functional

SMILES	inhibition of growth at 10 µM [%]
COc1ccc2c(c1)O/C(=C\c1ccc(OCC(=O)Nc3ccccc3)c(OC)c1)C2=O	18.9 to 27.1

These molecules were tested on Malme-3M (assay: Growth inhibition of human MALME-3M cells at 10 uM after 48 hrs by sulforhodamine B assay relative to control). Conditions: read-out: GI.
Type: functional

SMILES	inhibition of growth at 10 µM [%]
COc1ccc2c(c1)O/C(=C\c1ccc(OCC(=O)Nc3ccccc3)c(OC)c1)C2=O	18.9 to 27.1

What follows are molecules tested on OVCAR-8 (assay: Growth inhibition of human OVCAR8 cells at 10 uM after 48 hrs by sulforhodamine B assay relative to control). Conditions: OVCAR-8, 48 h, read-out: GI.
Type: functional

SMILES	inhibition of growth at 10 µM [%]
COc1ccc2c(c1)O/C(=C\c1ccc(OCC(=O)Nc3ccccc3)c(OC)c1)C2=O	18.9 to 27.1

These molecules were tested on A498 (assay: Growth inhibition of human A498 cells at 10 uM after 48 hrs by sulforhodamine B assay relative to control). Conditions: A498, 48 h, read-out: GI.
Type: functional

SMILES	inhibition of growth at 10 µM [%]
COc1ccc2c(c1)O/C(=C\c1ccc(OCC(=O)Nc3ccccc3)c(OC)c1)C2=O	18.9 to 27.1

These molecules were tested on SNB-19 (assay: Growth inhibition of human SNB19 cells at 10 uM after 48 hrs by sulforhodamine B assay relative to control). Conditions: SNB-19, 48 h, read-out: GI.
Type: functional

SMILES	inhibition of growth at 10 µM [%]
COc1ccc2c(c1)O/C(=C\c1ccc(OCC(=O)Nc3ccccc3)c(OC)c1)C2=O	18.9 to 27.1

What follows are molecules tested on SN12C (assay: Growth inhibition of human SN12C cells at 10 uM after 48 hrs by sulforhodamine B assay relative to control). Conditions: read-out: GI.
Type: functional

SMILES	inhibition of growth at 10 µM [%]
COc1ccc2c(c1)O/C(=C\c1ccc(OCC(=O)Nc3ccccc3)c(OC)c1)C2=O	18.9 to 27.1

Each molecule was assayed on SW-620 (assay: Growth inhibition of human SW620 cells at 10 uM after 48 hrs by sulforhodamine B assay relative to control). Conditions: SW-620, 48 h, read-out: GI.
Type: functional

SMILES	inhibition of growth at 10 µM [%]
COc1ccc2c(c1)O/C(=C\c1ccc(OCC(=O)Nc3ccccc3)c(OC)c1)C2=O	18.9 to 27.1

The molecules below were run on NCI/ADR-RES (assay: Growth inhibition of human NCI-ADR-RES cells at 10 uM after 48 hrs by sulforhodamine B assay relative to control). Conditions: read-out: GI.
Type: functional

SMILES	inhibition of growth at 10 µM [%]
COc1ccc2c(c1)O/C(=C\c1ccc(OCC(=O)Nc3ccccc3)c(OC)c1)C2=O	18.9 to 27.1

These molecules were tested on NCI-H322M (assay: Growth inhibition of human NCI-H322M cells at 10 uM after 48 hrs by sulforhodamine B assay relative to control). Conditions: read-out: GI.
Type: functional

SMILES	inhibition of growth at 10 µM [%]
COc1ccc2c(c1)O/C(=C\c1ccc(OCC(=O)Nc3ccccc3)c(OC)c1)C2=O	18.9 to 27.1

These molecules were tested on K562 (assay: Growth inhibition of human K562 cells at 10 uM after 48 hrs by sulforhodamine B assay relative to control). Conditions: K562, 48 h, read-out: GI.
Type: functional

SMILES	inhibition of growth at 10 µM [%]
COc1ccc2c(c1)O/C(=C\c1ccc(OCC(=O)Nc3ccccc3)c(OC)c1)C2=O	18.9 to 27.1

What follows are molecules tested on MOLT-4 (assay: Growth inhibition of human MOLT4 cells at 10 uM after 48 hrs by sulforhodamine B assay relative to control). Conditions: MOLT-4, 48 h, read-out: GI.
Type: functional

SMILES	inhibition of growth at 10 µM [%]
COc1ccc2c(c1)O/C(=C\c1ccc(OCC(=O)Nc3ccccc3)c(OC)c1)C2=O	18.9 to 27.1

The molecules below were run on T47D (assay: Growth inhibition of human T47D cells at 10 uM after 48 hrs by sulforhodamine B assay relative to control). Conditions: read-out: GI.
Type: functional

SMILES	inhibition of growth at 10 µM [%]
COc1ccc2c(c1)O/C(=C\c1ccc(OCC(=O)Nc3ccccc3)c(OC)c1)C2=O	18.9 to 27.1

These molecules were tested on SK-MEL-5 (assay: Growth inhibition of human SK-MEL-5 cells at 10 uM after 48 hrs by sulforhodamine B assay relative to control). Conditions: SK-MEL-5, 48 h, read-out: GI.
Type: functional

SMILES	inhibition of growth at 10 µM [%]
COc1ccc2c(c1)O/C(=C\c1ccc(OCC(=O)Nc3ccccc3)c(OC)c1)C2=O	18.9 to 27.1

The molecules below were run on RPMI-8226 (assay: Growth inhibition of human RPMI8226 cells at 10 uM after 48 hrs by sulforhodamine B assay relative to control). Conditions: RPMI-8226, 48 h, read-out: GI.
Type: functional

SMILES	inhibition of growth at 10 µM [%]
COc1ccc2c(c1)O/C(=C\c1ccc(OCC(=O)Nc3ccccc3)c(OC)c1)C2=O	18.9 to 27.1

What follows are molecules tested on HCT-15 (assay: Growth inhibition of human HCT15 cells at 10 uM after 48 hrs by sulforhodamine B assay relative to control). Conditions: HCT-15, 48 h, read-out: GI.
Type: functional

SMILES	inhibition of growth at 10 µM [%]
COc1ccc2c(c1)O/C(=C\c1ccc(OCC(=O)Nc3ccccc3)c(OC)c1)C2=O	18.9 to 27.1

Each molecule was assayed on KM12 (assay: Growth inhibition of human KM12 cells at 10 uM after 48 hrs by sulforhodamine B assay relative to control). Conditions: KM12, 48 h, read-out: GI.
Type: functional

SMILES	inhibition of growth at 10 µM [%]
COc1ccc2c(c1)O/C(=C\c1ccc(OCC(=O)Nc3ccccc3)c(OC)c1)C2=O	18.9 to 27.1

What follows are molecules tested on HT-29 (assay: Growth inhibition of human HT-29 cells at 10 uM after 48 hrs by sulforhodamine B assay relative to control). Conditions: HT-29, 48 h, read-out: GI.
Type: functional

SMILES	inhibition of growth at 10 µM [%]
COc1ccc2c(c1)O/C(=C\c1ccc(OCC(=O)Nc3ccccc3)c(OC)c1)C2=O	18.9 to 27.1

What follows are molecules tested on OVCAR-4 (assay: Growth inhibition of human OVCAR4 cells at 10 uM after 48 hrs by sulforhodamine B assay relative to control). Conditions: OVCAR-4, 48 h, read-out: GI.
Type: functional

SMILES	inhibition of growth at 10 µM [%]
COc1ccc2c(c1)O/C(=C\c1ccc(OCC(=O)Nc3ccccc3)c(OC)c1)C2=O	18.9 to 27.1

These molecules were tested on NCI-H226 (assay: Growth inhibition of human NCI-H226 cells at 10 uM after 48 hrs by sulforhodamine B assay relative to control). Conditions: NCI-H226, 48 h, read-out: GI.
Type: functional

SMILES	inhibition of growth at 10 µM [%]
COc1ccc2c(c1)O/C(=C\c1ccc(OCC(=O)Nc3ccccc3)c(OC)c1)C2=O	18.9 to 27.1

These molecules were tested on NCI-H23 (assay: Growth inhibition of human NCI-H23 cells at 10 uM after 48 hrs by sulforhodamine B assay relative to control). Conditions: NCI-H23, 48 h, read-out: GI.
Type: functional

SMILES	inhibition of growth at 10 µM [%]
COc1ccc2c(c1)O/C(=C\c1ccc(OCC(=O)Nc3ccccc3)c(OC)c1)C2=O	18.9 to 27.1

The molecules below were run on PC-3 (assay: Growth inhibition of human PC3 cells at 10 uM after 48 hrs by sulforhodamine B assay relative to control). Conditions: PC-3, 48 h, read-out: GI.
Type: functional

SMILES	inhibition of growth at 10 µM [%]
COc1ccc2c(c1)O/C(=C\c1ccc(OCC(=O)Nc3ccccc3)c(OC)c1)C2=O	18.9 to 27.1

These molecules were tested on HCC 2998 (assay: Growth inhibition of human HCC2998 cells at 10 uM after 48 hrs by sulforhodamine B assay relative to control). Conditions: HCC 2998, 48 h, read-out: GI.
Type: functional

SMILES	inhibition of growth at 10 µM [%]
COc1ccc2c(c1)O/C(=C\c1ccc(OCC(=O)Nc3ccccc3)c(OC)c1)C2=O	18.9 to 27.1

These molecules were tested on OVCAR-5 (assay: Growth inhibition of human OVCAR5 cells at 10 uM after 48 hrs by sulforhodamine B assay relative to control). Conditions: OVCAR-5, 48 h, read-out: GI.
Type: functional

SMILES	inhibition of growth at 10 µM [%]
COc1ccc2c(c1)O/C(=C\c1ccc(OCC(=O)Nc3ccccc3)c(OC)c1)C2=O	18.9 to 27.1
